{"source": "patent US11753453B2", "about": "“Peptide kinase inhibitors and methods of use thereof” (B.G. NEGEV TECHNOLOGIES AND APPLICATIONS LTD., priority 2017, dated 2023)", "molecules": {"B1": {"name": "SEQ ID NO: 33: shRNA sequence for targeting PKCη expression (nucleic acid)", "chain": "GATCCCCGGCCCGTCTTAACTCCGATTGATCTCGATCAATCGGAGTTAAGACGGGTTTTTG"}}, "key": {"MDA-MB-231 [1]": {"system": "MDA-MB-231", "test": "XTT cell viability assay, MDA-MB-231", "type": "cell-based", "conditions": "5 μM and 10 μM, compared to the other peptides", "procedure": "(§1) FIGS. 6A-6C show the efficacy of uORF2-encoded peptide mutated at position 10 (uPEP1-26[c/a]) in reducing cell viability on various cell lines. FIG. 6A: MCF-7 cells were seeded in 96 well plate and incubated for 24 hours with the indicated peptides. After 24 hours, the proliferation rate was monitored using XTT kit (Biological Industries, Israel) according to the manufacturer's instructions.\n(§2) Cells were seeded on 96-wells plate at a cell density of 20,000 cells/well and were grown for 48 hours. Cells were treated as indicated for 48 hours. A XTT (#20-300-1000, Biological Industries) reaction solution was prepared (containing the XTT and activation solutions) and added (50 μl/well) into cell medium for 2-4 hours at 37° C. The plate was immediately read in an ELISA plate reader at 450-500 nm. Background reading was performed at 630 nm, and the results calculated as the differences between the values.\n(§3) A uPEP21-26[10C/A] mutation of the PKCeta uORF2 peptide (SEQ ID NO: 1) was synthesized containing an alanine substitution at Cys-10, herein referred to as SEQ ID No 5. Cell lines MCF-7 (FIG. 6A), MDA-MB-231 (FIG. 6B) and HeLa (FIG. 6C) were treated with uPEP218-26, uPEP21-26, uPEP21-26[10C/A], uPEP21-17 and ηPS at doses of 5 μM and 10 μM in order to determine cell proliferation."}, "HeLa": {"system": "HeLa", "test": "XTT cell viability assay, HeLa", "type": "cell-based", "conditions": "5 μM and 10 μM, compared to the other peptides", "procedure": "as §1, §2, §3"}, "MCF-7": {"system": "MCF-7", "test": "XTT cell viability assay, MCF-7", "type": "cell-based", "conditions": "5 μM and 10 μM, compared to the other peptides", "procedure": "as §1, §2, §3"}, "MCF7": {"system": "MCF7", "test": "PrestoBlue cell viability/proliferation assay, MCF7", "type": "cell-based", "conditions": "compared with uPEP9-26, uPEP18-26 and ηPS", "procedure": "(§4) FIGS. 4A-4D show the ability of the peptide encoded by uORF2 (uPEP21-26) to reduce viability of breast cancer and glioblastoma cells. FIG. 4A: MCF-7 cells were seeded onto 48-well plates. 24 hours later, the cells were incubated for 24 hours with the indicated peptides). Following incubation, the medium with tested peptide was gently aspirated from each well and 25 μL of PrestoBlue reagent was added to each well of the 48-well plate and incubated at 37° C. in 5% CO2 for 15 min, as recommended. The absorbance was detected by ‘Infinite M200 PRO’ reader. FIGS. 4B-4D are the results of experiments identical to that described by FIG. 4A, but performed on cells lines U251 MG (glioblastoma cell line), MDA-MB-231 and MCF10A, respectively.\n(§5) MCF-7 and MDA-MB-231 cells were seeded at 2×10^4 cells/well in 48-well plates. After 24 h serum free-media containing the peptides was added to the wells for 4 h. Then, medium with serum was added and the plate was incubated for 24 h at incubator (5% CO2 humidified atmosphere at 37° C.). Following incubation, the medium with tested peptide was gently aspirated from each well and 25 μL of PrestoBlue™ reagent (Thermo #A13261) was added to each well of the 48-well plate and incubated at 37° C. in 5% CO2 for 15 min, as recommended. The absorbance was recorded at 570 nm and detected by ‘Infinite M200 PRO’ reader. […]"}, "[2]": {"system": "PKCs from the novel PKC subfamily", "test": "In vitro kinase assay on PKC subfamilies", "type": "biochemical", "conditions": "peptide at 2 μM; normalized to control without peptide", "procedure": "(§6) FIG. 2A is a schematic view of the peptides derived from PKCη and used in the examples described herein. uPEP1-26 refers to the complete peptide encoded by uORF2; uPEP9-26 and uPEP18-26 refer to control peptides, which lack the PS motif; ηPS refer to a peptide containing the internal PS domain of PKCη. […] The kinase activity of PKCη was measured using Myelin Basic Protein (p-MBP) as a substrate and γ-^32P radioactive kinase assays. All values were normalized to the control sample without a peptide (Cont.). The data shown are the means of three separate experiments, and is also presented as the gel in FIG. 2C. FIG. 2D: Kinase assays were conducted as described in FIG. 2B, using uPEP1-26 at 2 μM concentration are depicted. All values were normalized to the control sample (without peptide). The data shown are the means of three separate experiments.\n(§7) Immunoprecipitations were performed by using pre-absorbed mAbs on protein A/G-agarose beads for 1 h at room temperature. Excess Abs was removed by 3 washes in cold phosphate buffered saline (PBS) and Ab-coated beads were incubated with cell lysates overnight at 4° C. Immune complexes were precipitated by centrifugation followed by extensive washing with RIPA buffer without SDS (10 mM Tris-HCl pH 8.0, 100 mM NaCl, 5 mM EGTA, 1% NP-40, 45 mM β-mercaptoethanol, and 50 mM NaF). […] Kinase activity was evaluated with exposing reagents. […]"}, "MCF7 (breast cancer)": {"system": "MCF7 (breast cancer)", "test": "Scratch (wound healing) assay, MCF7", "type": "cell-based", "procedure": "(§8) FIG. 3A is a photograph taken from the scratch assay performed on MDA-MB-231 cells. Cells were seeded in 24-well plate and incubated for 4 hours with the indicated peptides in a free-serum media. After 4 hours, a scratch was made with a 200 μl pipette tip. Photographs of a selected area of each scratch were taken at indicated time points. Areas were measured by ImageJ software. FIGS. 3B-3D are graphs representing the analysis of the scratch assay performed as described in […] on cell lines MDA-MB-231, MCF-7 and MCF10A, respectively. All values were normalized to time 0 of each well and presented in percentage.\n(§9) MCF-7 and MDA-MB-231 cells were seeded in 24-well plates and grown to full confluency. Subsequently, media with low serum (2% to MCF-7 and 0.1% to MDA-MB-231) containing the peptides were added to the wells for 4 h. Then, a scratch was placed in the middle of the well with a sterile 200 μl pipette tip (Eppendorf). After washing once with PBS, the respective treatments were returned. Wells were photographed at total magnification of 4× with an IX70 Olympus Optical light microscope (Tokyo, Japan). 3 Images for each well were taken every 24 h.\n(§10) The in vitro effect of PKCeta uORF2 on cancer cell migration was tested […] by a standard scratch test assay, as described above. […]"}, "[3]": {"system": "MDA-MB-231 (breast cancer)", "test": "Scratch (wound healing) assay, MDA-MB-231", "type": "cell-based", "conditions": "MDA-MB-231, scratch assay", "procedure": "as §8, §9, §10"}, "[4]": {"system": "U251 MG (glioblastoma cell line)", "test": "PrestoBlue cell viability/proliferation assay, U251 MG", "type": "cell-based", "conditions": "compared with uPEP9-26, uPEP18-26 and ηPS", "procedure": "as §4, §5"}, "PKCη": {"target": "T1, PKCη (Homo sapiens, UniProt P24723)", "T1 construct": "HA; expressed in transfected cells", "T1 sequence (P24723 whole entry)": "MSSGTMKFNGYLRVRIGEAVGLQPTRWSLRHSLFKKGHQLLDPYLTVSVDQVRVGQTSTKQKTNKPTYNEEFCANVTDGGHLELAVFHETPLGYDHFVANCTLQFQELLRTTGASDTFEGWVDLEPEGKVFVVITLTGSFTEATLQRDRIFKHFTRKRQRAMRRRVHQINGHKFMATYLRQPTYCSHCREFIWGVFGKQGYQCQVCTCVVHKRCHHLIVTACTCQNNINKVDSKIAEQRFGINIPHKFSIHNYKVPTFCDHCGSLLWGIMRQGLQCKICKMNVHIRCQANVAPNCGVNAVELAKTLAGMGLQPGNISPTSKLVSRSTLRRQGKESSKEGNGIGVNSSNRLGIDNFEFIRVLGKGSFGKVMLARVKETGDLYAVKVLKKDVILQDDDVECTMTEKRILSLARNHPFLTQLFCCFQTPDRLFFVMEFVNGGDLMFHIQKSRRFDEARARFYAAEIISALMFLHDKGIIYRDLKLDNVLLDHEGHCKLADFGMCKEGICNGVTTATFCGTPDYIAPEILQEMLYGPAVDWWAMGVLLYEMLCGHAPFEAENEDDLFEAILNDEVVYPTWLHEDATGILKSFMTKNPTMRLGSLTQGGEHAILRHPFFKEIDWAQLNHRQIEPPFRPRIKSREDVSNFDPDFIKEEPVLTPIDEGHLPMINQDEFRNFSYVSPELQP", "test": "In vitro kinase assay of PKCη with Myelin Basic Protein as substrate", "type": "biochemical", "conditions": "p-MBP, γ-32P radioactive kinase assay; compared to control peptide uPEP9-26 and ηPS; peptides 2 or 10 μM", "procedure": "as §6, §7"}, "MDA-MB-231 [5]": {"system": "MDA-MB-231", "test": "PrestoBlue cell viability/proliferation assay, MDA-MB-231", "type": "cell-based", "conditions": "compared with uPEP9-26, uPEP18-26 and ηPS", "procedure": "as §4, §5"}, "4T1 cells": {"system": "4T1 cells", "test": "Breast 4T1 mouse model with PKCη knockdown cells", "type": "in vivo", "conditions": "4T1 cells expressing shRNA vs scrambled control, female BALB/c mice", "procedure": "FIG. 7A: 4T1 cells expressing shPKCη (SEQ ID NO: 33) or scrambled control were injected into mammary fat pad of 8-week-old female BALB/c mice. Tumor diameters were measured every week with vernier calipers. FIG. 7B: The mice were sacrificed after 8 weeks, and number of metastasis formed in the lungs was counted using Bouin's solutions. Error bars represent the mean±s.e.m, statistical analysis indicates for statistical significance in two-tailed, unpaired sample t-test.\nMice were anesthetized with a solution of 10 ml/mg Ketamine and 1.17 ml/mg xylazine, in saline. Anesthesia was injected intraperitoneally (IP) after sterilizing the inoculation area of the mice with 70% ethanol solution. Using a 27-gauge needle, 4T1 control and shPKCη knockdown cells (transfected with SEQ ID NOs 33-35 or scrambled control (obtained from the ATCC) were injected a few millimeters from the nipple, underneath the skin (120,000 cells in 50 μl per mouse).\nEach week, mice were tested for tumors and the primary tumors were examined by caliper. After 10 weeks, mice were euthanized and examined for metastases in lung, liver and spleen, and samples were prepared for immuno staining.\nTo test the in vivo effects of PKCeta on tumor formation, the establishment and growth of breast cancer cells with (4T1 control cells) and without PKCeta (PKCeta knockdown 4T1 cells) was compared."}}, "data": [{"molecule": "uPEP1-26[10C/A]: full-length PKCeta derived uORF peptide with alanine substitution at Cys-10; MASRGALRRXLSPGLPRLLHLSRGLA wherein X is A (MASRGALRRALSPGLPRLLHLSRGLA)", "values": [{"measurement": "reduction of cell viability", "setting": "MDA-MB-231 [1]", "result": "efficiently reduced cell viability"}, {"measurement": "reduction of cell viability", "setting": "HeLa", "result": "efficiently reduced cell viability"}, {"measurement": "reduction of cell viability", "setting": "MCF-7", "result": "efficiently reduced cell viability"}]}, {"molecule": "uPEP1-26: full-length human PKCeta uORF2 peptide, 26 amino acids; MASRGALRRXLSPGLPRLLHLSRGLA wherein X is C (MASRGALRRCLSPGLPRLLHLSRGLA; listed as Homo sapiens)", "values": [{"measurement": "inhibition of cell proliferation", "setting": "MCF7", "result": "inhibited cell proliferation the most"}, {"measurement": "inhibition of kinase activity of PKCs from the novel PKC subfamily", "setting": "[2]", "result": "strongly inhibits"}, {"measurement": "inhibition of cell migration", "setting": "MCF7 (breast cancer)", "result": "inhibited migration"}, {"measurement": "inhibition of cell migration", "setting": "[3]", "result": "inhibited migration"}, {"measurement": "inhibition of cell proliferation", "setting": "[4]", "result": "inhibited cell proliferation the most"}, {"measurement": "inhibition of kinase activity of PKCη", "setting": "PKCη", "result": "strongest inhibitor"}, {"measurement": "inhibition of cell proliferation", "setting": "MDA-MB-231 [5]", "result": "inhibited cell proliferation the most"}]}, {"molecule": "B1", "values": [{"measurement": "formation of tumor metastases (lungs)", "setting": "4T1 cells", "result": "inhibited the formation of tumor metastases"}, {"measurement": "tumor volume over time", "setting": "4T1 cells; mammary fat pad", "result": "significant inhibition in tumor size"}]}]}
